Data on 33 molecules can be found in the Deep4Chem optical property database.

Where “and” joins values, the source holds several entries; their conditions need not be identical. Equal entries are not always repeated.

This series in a line: solvent given as SMILES.

For the molecule `CN(c1ccccc1)c1ccc(/C=C2\C(=O)c3ccccc3S2(=O)=O)cc1`, the emission maximum by setting is: (in C1CCOC1) 532 nm; (in C1COCCO1) 542 nm; (in CC#N) 511 nm; (in CC(C)=O) 537 nm; (in CCOC(C)=O) 533 nm; (in CN(C)C=O) 524 nm. For the same molecule, the emission maximum runs as follows: (in CO) 525 nm; (in CS(C)=O) 552 nm; (in Cc1ccccc1) 576 nm; (in ClC(Cl)Cl) 532 nm; (in ClCCl) 547 nm.

Where the note is “in ClC(Cl)Cl”, `CC(C)(C)c1ccc2c(c1)c1cc(C(C)(C)C)ccc1n2-c1ccc2oc3nc4oc5cc(C(F)(F)F)ccc5c4cc3c2c1` registered an emission maximum of 466 nm.

In the case of `CCCCN1C(=O)c2ccc3c4c(Br)cc5c6c(ccc(c7c(Br)cc(c2c37)C1=O)c64)C(=O)N(CCCC)C5=O`, under “in ClC(Cl)Cl”, the emission maximum came to 542 nm.

In turn, `COC(=O)C(Cc1ccc2oc(-c3ccc(-n4c5ccccc5c5ccccc54)cc3)nc2c1)NC(=O)OC(C)(C)C` (centres undefined) yielded an emission maximum (in C1CCCCC1) of 362 nm; an emission maximum (in C1CCOC1) of 429 nm; an emission maximum (in C1COCCO1) of 400 nm; an emission maximum (in CC1CCCO1) of 404.01 nm; an emission maximum (in CC#N) of 447.01 nm; an emission maximum (in CC(C)(C)O) of 421 nm. Moreover, the emission maximum is, setting by setting: (in CC(C)=O) 432.99 nm; (in CC(C)CC(C)(C)C) 361.01 nm; (in CC(C)O) 431 nm; (in CC(O)CO) 455 nm; (in CCCCCCCO) 421.99 nm; (in CCCCCCO) 424 nm. Besides, the emission maximum by setting is: (in CCCCCO) 409 nm; (in CCCCO) 430 nm; (in CCO) 445 nm; (in CCOC(C)=O) 409 nm; (in CCOCC) 402.32 nm; (in CN(C)C=O) 438.02 nm. Also, the emission maximum (in CO) is listed as 465.98 nm, the emission maximum (in CS(C)=O) is given as 445.99 nm, the emission maximum (in Cc1ccccc1) stood at 391.01 nm and the emission maximum (in OCCO) amounted to 470.01 nm.

With `N#C/C=C/c1ccc2ccc3cccc4ccc1c2c34`, the emission maximum runs as follows: (in C1CCOC1) 425 nm; (in C1COCCO1) 421.5 nm; (in C=CC#N) 439.5 nm; (in CC#N) 440.5 nm; (in CC(C)=O) 433 nm; (in CCCCCC) 409.5 nm. Besides, the emission maximum amounted to 423 nm (in CCOC(C)=O), 443 nm (in CO), 423 nm (in Cc1ccccc1) and 434 nm (in ClCCl).

As for `CN(C)c1ccc(C2=CC(c3ccccc3)=[N+]3C2=Nc2c(-c4ccc(N(C)C)cc4)cc(-c4ccccc4)n2[B-]3(F)F)cc1`, the emission maximum (in Cc1ccccc1) was found to be 822 nm.

Molecule `CCCCCCCCCCCCCCCCCCOc1ccc([B-]23NC(c4ccccc4)=Nc4cccc([n+]42)N=C(c2ccccc2)N3)cc1` had an emission maximum (in ClCCl) of 511 nm.

Turning to `CCCC1=Cc2nc1ccc1[nH]c(cc1CCC)c1nc(c(O)cc3[nH]c2cc3CCC)C(CCC)=C1`, the emission maximum (in Cc1ccccc1) is 683 nm.

`CCCCCCCCCCCCOc1cc2c3c(ccc4c5c(OCCCCCCCCCCCC)cc6c7c(ccc(c1c34)c75)C(=O)N(C1CCCCC1)C6=O)C(=O)N(C1CCCCC1)C2=O` yielded an emission maximum (in ClC(Cl)Cl) of 597 nm.

As to `Cc1ccc(C2=C3C=C(I)C(I)=[N+]3[B-](F)(F)n3c2cc(I)c3I)cc1`, the emission maximum (in C1CCCCC1) was 593 nm; the emission maximum (in CC#N) was determined as 591 nm; the emission maximum (in CCO) is listed as 595 nm; the emission maximum (in CCOC(C)=O) is recorded as 591.5 nm; the emission maximum (in CO) came to 593.5 nm; the emission maximum (in OCC(F)(F)F) came out at 588 nm.

Take `CN(C)c1ccc2cc(C3=[O+][B-](F)(F)OC(c4ccccc4)=C3)ccc2c1`: the emission maximum by setting is: (in C1CCOC1) 643 nm; (in CC#N) 406 nm; (in CC(C)=O) 682 nm; (in CS(C)=O) 422 nm; (in Cc1ccccc1) 573 nm; (in ClC(Cl)Cl) 613 nm. This molecule also displayed an emission maximum (in ClCCl) of 650 nm.

On to `c1ccc(-c2nc(-c3ccccc3)nc(-c3ccc(-n4c5ccccc5c5ccc6c(c7ccccc7n6-c6ccccc6)c54)cc3)n2)cc1`, for which the emission maximum (in Cc1ccccc1) is 466.56 nm and 461 nm; the emission maximum (in O=P(c1ccccc1)(c1ccccc1)c1ccc2oc3ccc(P(=O)(c4ccccc4)c4ccccc4)cc3c2c1) is on record as 479 nm.

As for `COC(=O)C(NC(=O)OC(C)(C)C)c1ccc2oc(-c3cccc(Oc4ccccc4)c3)nc2c1` (centres undefined), the emission maximum is, setting by setting: (in CC1CCCCC1) 325 nm; (in CC#N) 360 nm; (in CO) 348 nm.

The molecule `CCN(CC)c1ccc2ccc(=O)oc2c1` yielded an emission maximum (in CC(C)=O) of 430 nm; an emission maximum (in CCCCCC) of 392 nm; an emission maximum (in CCCCCCC) of 390 nm; an emission maximum (in CCCCO) of 442 nm; an emission maximum (in CCCO) of 442 nm; an emission maximum (in CCO) of 443 nm. Further, the emission maximum by setting is: (in CCOCC) 405 nm; (in CN(C)C=O) 440 nm; (in CO) 445 nm; (in Cc1ccccc1) 418 nm; (in ClC(Cl)(Cl)Cl) 412 nm; (in ClC(Cl)Cl) 435 nm. The molecule also came in with an emission maximum (in ClCCl) of 466 nm, an emission maximum (in OCCO) of 445 nm and an emission maximum (in c1ccccc1) of 395 nm.

`C(#Cc1c(C#Cc2cccs2)c(C#Cc2cccs2)c(C#Cc2cccs2)c(C#Cc2cccs2)c1C#Cc1cccs1)c1cccs1` came in with an emission maximum (in ClCCl) of 453 nm.

`CC1(C)CC(=O)c2c(F)c(C(F)(F)F)c(F)c(F)c2N1`: the emission maximum was found to be 419 nm (in CC#N) and 453 nm (in CCO).

With `CC(C)[Si](C#Cc1c2nsnc2c(C#C[Si](C(C)C)(C(C)C)C(C)C)c2nc3c4ccccc4c(=O)c4ccccc4c3nc12)(C(C)C)C(C)C`, the emission maximum (in ClCCl) turned out to be 594 nm.

Take `CC(C)(C)c1ccc(-c2cc(-c3ccc(-c4cc(-c5ccc(C(C)(C)C)cc5)c(C#N)s4)s3)sc2C#N)cc1`: the emission maximum (in ClCCl) is 443 nm.

Regarding `c1ccc2c(-n3c(-c4ccc(-c5ccc(-c6nc7c8ccccc8c8ccccc8c7n6-c6cccc7ccccc67)c6ccccc56)c5ccccc45)nc4c5ccccc5c5ccccc5c43)cccc2c1`, the emission maximum (in ClCCl) is 428 nm.

`CC(C)CCCN1c2ccccc2CCc2ccccc21` gave an emission maximum (in CC#N) of 352 nm and an emission maximum (in CO) of 360 nm.

Turning to `C#CC1CN2CCC1CC2[C@@H](O)c1ccnc2ccc(OC)cc12` (some centres undefined), the emission maximum is 361 nm (in C1CCOC1); 358 nm (in CC#N); 359 nm (in CCCC#N); 360 nm (in Cc1ccccc1); 363 nm (in ClCCl).

In turn, `CCNc1cc2oc(=O)cc(C)c2cc1C` returned an emission maximum (in CC#N) of 420 nm.

As for `O=S(=O)(/N=c1\oc2cccc3c4c(-c5ccccc5)oc5cccc(c(c1-c1ccccc1)c23)c54)C(F)(F)F`, the emission maximum came out at 535 nm (in CCCCCC); 582 nm (in CO); 596 nm (in CS(C)=O); 558 nm (in ClC(Cl)Cl); 569 nm (in ClCCl); 601 nm (in O).

`CCCCCCCCOc1cc(/C=C/c2cc(OCCCCCCCC)c(/C=C/c3cc(OCCCCCCCC)c(Br)cc3OCCCCCCCC)cc2OCCCCCCCC)c(OCCCCCCCC)cc1Br`: where the note is “in ClCCl”, the emission maximum is recorded as 467 nm.

Consider `CCOC(=O)CCOc1ccc(C(c2c(C)[nH]c3ccccc23)c2c(C)[nH]c3ccccc23)cc1`, for which the emission maximum reads like this: (in C1CCCCC1) 328 nm; (in CC#N) 348 nm; (in CO) 349 nm; (in O) 350 nm.

For the setting “in CC#N”, `O=c1oc2ccccc2cc1C#Cc1ccccc1` came in with an emission maximum of 406 nm.

Consider `Cc1nn(-c2ccccc2)c(C2=NN(c3ccc(Br)cc3)[C@@H](c3ccccc3)[C@@H]2c2ccccc2)c1C#N`, for which the emission maximum is on record as 468 nm (in C1CCCCC1); 483 nm (in C1CCOC1); 481 nm (in C1COCCO1); 491 nm (in CC#N); 467 nm (in CCCCCCC); 493 nm (in CCO). The emission maximum is, setting by setting: (in CN(C)C=O) 492 nm; (in CO) 496 nm; (in O) 485 nm; (in OCCO) 500 nm.

In the case of `O=c1oc2ccccc2cc1/C=C/c1ccc([N+](=O)[O-])cc1`, the emission maximum (in CC#N) was 539 nm.

Molecule `CCCCCCCCC1(CCCCCCCC)c2cc(-c3ccc(C#N)cc3)ccc2-c2ccc(-c3ccc(C#N)cc3)cc21` showed an emission maximum (in ClC(Cl)Cl) of 385 nm.

In turn, `Cc1ccc(-c2cnc3nn4ccccc4c3n2)cc1` yielded an emission maximum (in C1CCOC1) of 450 nm.

For the molecule `N#Cc1ccc(/C2=C3N=C(C(c4ccccc4)=C/3c3ccccc3)/C(c3ccc(C#N)cc3)=c3\[nH]/c(c(-c4ccccc4)c3-c3ccccc3)=C(/c3ccc(C#N)cc3)C3=N/C(=C(/c4ccc(C#N)cc4)c4[nH]c2c(-c2ccccc2)c4-c2ccccc2)C(c2ccccc2)=C3c2ccccc2)cc1`, the emission maximum (in ClCCl) stood at 725 nm.

As to `CCCCCCCCOc1ccc2c3c(c4ccc(OCCCCCCCC)cc4c2c1)C(C)(C)c1ccccc1-3`, the emission maximum (in C1CCCCC1) came out at 390 nm.

Regarding `CCCCc1ccc(-n2c3c4ccc(C(F)(F)F)cc4nc(-c4ccc(C#N)cc4)c3c3c2c2c(-c4ccc(C#N)cc4)nc4cc(C(F)(F)F)ccc4c2n3-c2ccc(CCCC)cc2)cc1`, the emission maximum (in ClC(Cl)Cl) is 499 nm.
